Assay results reported in patent US12581252B2, “Substituted pyrrolo[3,4-b]pyridines as PI3K-α inhibitors” (Relay Therapeutics, Inc., priority 2020, dated 2026).

Target: H1047R PIK3CA enzyme (Homo sapiens, UniProt P42336, H1047R)
Test: ADP-Glo Biochemical PIK3CA Kinase Assay
Experimental: Compounds to be assayed were plated in 16 doses of 1:2 serial dilutions (20 nL volume each well) on a 1536-well plate, and the plate warmed to room temperature. […] To the well was added 1 μL of 200 μM ATP and 20 μM of diC8-PIP2 in Substrate Assay Buffer (50 mM HEPES pH7.4, 50 mM NaCl, 5 mM DTT and 0.03% CHAPS) to start the reaction, and the plate was shaken for 10 seconds, then spun briefly at 1500 rpm, and then incubated for 60 minutes at room temperature. The reaction was stopped by adding 2 μL of ADP-Glo reagent (Promega), and spinning briefly at 1500 rpm, and then incubating for 40 minutes. ADP-Glo Detection reagent (Promega) was added and the plate spun briefly at 1500 rpm, then incubated for 30 minutes.

Chain of H1047R PIK3CA enzyme (P42336 whole entry H1047R): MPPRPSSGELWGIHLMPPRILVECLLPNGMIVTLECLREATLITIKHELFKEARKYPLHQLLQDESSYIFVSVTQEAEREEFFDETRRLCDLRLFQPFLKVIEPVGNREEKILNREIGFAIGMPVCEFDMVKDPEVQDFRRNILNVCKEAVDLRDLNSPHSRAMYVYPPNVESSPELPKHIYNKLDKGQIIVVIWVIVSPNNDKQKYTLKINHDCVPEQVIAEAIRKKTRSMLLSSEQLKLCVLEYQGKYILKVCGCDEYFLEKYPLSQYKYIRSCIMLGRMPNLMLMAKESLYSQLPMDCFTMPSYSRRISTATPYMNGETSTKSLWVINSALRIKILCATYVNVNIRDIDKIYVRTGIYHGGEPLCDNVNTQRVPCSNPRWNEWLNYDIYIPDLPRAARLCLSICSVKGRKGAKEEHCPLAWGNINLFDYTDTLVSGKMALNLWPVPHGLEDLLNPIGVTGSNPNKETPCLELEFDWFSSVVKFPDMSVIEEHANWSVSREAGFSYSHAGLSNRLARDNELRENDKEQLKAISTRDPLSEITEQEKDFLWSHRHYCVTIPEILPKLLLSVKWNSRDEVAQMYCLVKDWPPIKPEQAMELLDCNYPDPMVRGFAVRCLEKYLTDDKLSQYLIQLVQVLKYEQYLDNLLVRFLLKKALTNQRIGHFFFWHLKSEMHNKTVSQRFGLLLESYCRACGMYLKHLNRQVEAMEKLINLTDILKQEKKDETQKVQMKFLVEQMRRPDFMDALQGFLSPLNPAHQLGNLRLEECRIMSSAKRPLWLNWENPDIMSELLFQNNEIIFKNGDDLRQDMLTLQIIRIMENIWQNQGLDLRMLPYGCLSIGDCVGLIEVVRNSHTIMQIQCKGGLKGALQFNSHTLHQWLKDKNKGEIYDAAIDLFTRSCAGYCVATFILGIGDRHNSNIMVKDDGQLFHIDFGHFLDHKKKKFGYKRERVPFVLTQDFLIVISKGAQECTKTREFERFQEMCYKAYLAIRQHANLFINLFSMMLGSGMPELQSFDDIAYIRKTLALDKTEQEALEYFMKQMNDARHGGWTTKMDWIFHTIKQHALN
Chain of H1047R PIK3CA enzyme (P27986 whole entry partner): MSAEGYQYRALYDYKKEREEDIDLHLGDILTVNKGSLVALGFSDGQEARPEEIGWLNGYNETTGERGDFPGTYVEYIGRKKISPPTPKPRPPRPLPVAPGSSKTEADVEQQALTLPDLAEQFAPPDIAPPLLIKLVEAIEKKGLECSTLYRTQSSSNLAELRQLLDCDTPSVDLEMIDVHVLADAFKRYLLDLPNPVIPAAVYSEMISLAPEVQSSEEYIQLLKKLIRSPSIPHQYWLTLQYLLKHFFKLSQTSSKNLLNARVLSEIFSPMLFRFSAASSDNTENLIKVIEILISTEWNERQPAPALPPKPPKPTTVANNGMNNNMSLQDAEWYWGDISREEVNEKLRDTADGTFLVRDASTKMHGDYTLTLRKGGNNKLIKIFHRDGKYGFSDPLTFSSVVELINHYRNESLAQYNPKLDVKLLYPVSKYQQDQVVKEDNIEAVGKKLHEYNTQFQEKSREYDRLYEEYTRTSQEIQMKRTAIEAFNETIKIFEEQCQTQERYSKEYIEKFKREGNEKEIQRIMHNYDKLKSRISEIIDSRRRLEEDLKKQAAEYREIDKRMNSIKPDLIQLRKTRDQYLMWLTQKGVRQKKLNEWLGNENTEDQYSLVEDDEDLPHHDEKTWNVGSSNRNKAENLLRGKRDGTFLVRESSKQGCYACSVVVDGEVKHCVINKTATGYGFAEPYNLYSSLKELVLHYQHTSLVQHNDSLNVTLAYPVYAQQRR

SMILES | IC50 [µM]
C[S@@](=O)(Cc1cc(NC(=O)c2cc(F)cc(C(F)(F)F)c2)c2c(c1)C(=O)N[C@H]2c1cc(F)ccc1Cl)=NC#N (single isomer, unassigned) [Compound I-1565] | ≤ 0.1
CN1C(=O)CC[C@@H]1COc1cc(NC(=O)c2cc(F)cc(C(F)(F)F)c2)c2c(c1)C(=O)N[C@H]2c1cc(F)ccc1Cl (single isomer, unassigned) [Compound I-1567] | ≤ 0.1
CN1C(=O)CC[C@H]1COc1cc(NC(=O)c2cc(F)cc(C(F)(F)F)c2)c2c(c1)C(=O)N[C@@H]2c1cc(F)ccc1Cl (single isomer, unassigned) [Compound I-1568] | 1 to 10
CN1C(=O)CC[C@@H]1COc1cc(NC(=O)c2cc(F)cc(C(F)(F)F)c2)c2c(c1)C(=O)N[C@@H]2c1cc(F)ccc1Cl (single isomer, unassigned) [Compound I-1569] | 10 to 100
O=C1N[C@@H](c2cc(F)ccc2Cl)c2c(NC(=O)N3C[C@H](O)c4ccccc43)cc(-c3ccc4ncnn4c3)cc21 (single isomer, unassigned) [Compound I-1576] | 0.1 to 0.5
O=C1N[C@@H](c2cc(F)ccc2Cl)c2c(NC(=O)N3C[C@@H](O)c4ccccc43)cc(-c3ccc4ncnn4c3)cc21 (single isomer, unassigned) [Compound I-1577] | ≤ 0.1
O=C1N[C@H](c2cc(F)ccc2Cl)c2c(NC(=O)N3C[C@H](O)c4ccccc43)cc(-c3ccc4ncnn4c3)cc21 (single isomer, unassigned) [Compound I-1578] | 10 to 100
O=C1N[C@H](c2cc(F)ccc2Cl)c2c(NC(=O)N3C[C@@H](O)c4ccccc43)cc(-c3ccc4ncnn4c3)cc21 (single isomer, unassigned) [Compound I-1579] | 0.5 to 1
[2H][C@]1(c2cc(F)ccc2Cl)NC(=O)c2cc(-c3ccc4ncnn4c3)cc(NC(=O)c3cc(F)cc(C(F)(F)F)c3)c21 (single isomer, unassigned) [Compound I-1600] | ≤ 0.1
[2H][C@@]1(c2cc(F)ccc2Cl)NC(=O)c2cc(-c3ccc4ncnn4c3)cc(NC(=O)c3cc(F)cc(C(F)(F)F)c3)c21 (single isomer, unassigned) [Compound I-1601] | ≤ 0.1
C[C@@H](c1cc(NC(=O)c2cc(F)cc(C(F)(F)F)c2)c2c(c1)C(=O)N[C@@H]2c1cc(F)ccc1Cl)S(C)(=O)=O (single isomer, unassigned) [Compound I-1640] | 1 to 10
C[C@@H](c1cc(NC(=O)c2cc(F)cc(C(F)(F)F)c2)c2c(c1)C(=O)N[C@H]2c1cc(F)ccc1Cl)S(C)(=O)=O (single isomer, unassigned) [Compound I-1641] | ≤ 0.1
C[C@H](c1cc(NC(=O)c2cc(F)cc(C(F)(F)F)c2)c2c(c1)C(=O)N[C@H]2c1cc(F)ccc1Cl)S(C)(=O)=O (single isomer, unassigned) [Compound I-1642] | ≤ 0.1
C[C@H](c1cc(NC(=O)c2cc(F)cc(C(F)(F)F)c2)c2c(c1)C(=O)N[C@@H]2c1cc(F)ccc1Cl)S(C)(=O)=O (single isomer, unassigned) [Compound I-1643] | 1 to 10
N#Cc1cc2ncnn2cc1-c1cc(NC(=O)c2cc(F)cc(C(F)(F)F)c2)c2c(c1)C(=O)N[C@@H]2c1cc(F)ccc1Cl (single isomer, unassigned) [Compound I-1646] | ≤ 0.1
O=C1C[C@H](c2cc(NC(=O)c3cc(F)cc(C(F)(F)F)c3)c3c(c2)C(=O)N[C@H]3c2cc(F)ccc2Cl)CN1 (single isomer, unassigned) [Compound I-1709] | ≤ 0.1
O=C1C[C@@H](c2cc(NC(=O)c3cc(F)cc(C(F)(F)F)c3)c3c(c2)C(=O)N[C@H]3c2cc(F)ccc2Cl)CN1 (single isomer, unassigned) [Compound I-1710] | ≤ 0.1
O=C1C[C@H](c2cc(NC(=O)c3cc(F)cc(C(F)(F)F)c3)c3c(c2)C(=O)N[C@@H]3c2cc(F)ccc2Cl)CN1 (single isomer, unassigned) [Compound I-1711] | 1 to 10
O=C1C[C@@H](c2cc(NC(=O)c3cc(F)cc(C(F)(F)F)c3)c3c(c2)C(=O)N[C@@H]3c2cc(F)ccc2Cl)CN1 (single isomer, unassigned) [Compound I-1712] | 1 to 10
O=C(Nc1cc(-c2cnn(C(F)F)c2)cc2c1[C@@H](c1cc(F)ccc1Cl)NC2=O)c1cc(F)cc(C(F)(F)F)c1 (single isomer, unassigned) [Compound I-1739] | 1 to 10
[2H]C([2H])(c1cc(NC(=O)c2cc(F)cc(C(F)(F)F)c2)c2c(c1)C(=O)N[C@@H]2c1cc(F)ccc1Cl)S(C)(=O)=O (single isomer, unassigned) [Compound I-1788] | 0.1 to 0.5
[2H]C([2H])(c1cc(NC(=O)c2cc(F)cc(C(F)(F)F)c2)c2c(c1)C(=O)N[C@H]2c1cc(F)ccc1Cl)S(C)(=O)=O (single isomer, unassigned) [Compound I-1789] | ≤ 0.1
O=C1NC(c2cc(F)ccc2Cl)c2c(NC(=O)N3C[C@H](O)[C@@H](C(F)(F)F)C3)cc(-c3ccc4ncnn4c3)cc21 (single isomer, unassigned) [Compound I-1902] | 1 to 10

SMILES | IC50 [µM]
O=C1N[C@H](c2cc(F)ccc2Cl)c2c1cc(-c1ccc3ncnn3c1)cc2S(=O)(=O)Cc1ccccc1 (single isomer, unassigned) [Compound I-1905] | 1 to 10
O=C1N[C@@H](c2cc(F)ccc2Cl)c2c1cc(-c1ccc3ncnn3c1)cc2S(=O)(=O)Cc1ccccc1 (single isomer, unassigned) [Compound I-1906] | 10 to 100
C[C@H](C#N)n1cc(-c2cc(NC(=O)c3cc(F)cc(C(F)(F)F)c3)c3c(c2)C(=O)N[C@@H]3c2cc(F)ccc2Cl)cn1 (single isomer, unassigned) [Compound I-1915] | 1 to 10
C[C@H](C#N)n1cc(-c2cc(NC(=O)c3cc(F)cc(C(F)(F)F)c3)c3c(c2)C(=O)N[C@H]3c2cc(F)ccc2Cl)cn1 (single isomer, unassigned) [Compound I-1916] | ≤ 0.1
O=C1NC(c2cc(F)ccc2Cl)c2c(NC(=O)C3CCCN(CC(F)(F)F)C3)cc(-c3ccc4ncnn4c3)cc21 (single isomer, unassigned) [Compound I-1964] | 10 to 100
O=C(Nc1cccc2c1C([C@@H]1CCCC[C@H]1O)NC2=O)c1cc(F)cc(C(F)(F)F)c1 (single isomer, unassigned) [Compound I-1971] | 10 to 100
O=C(Nc1cccc2c1C([C@H]1CCCC[C@@H]1O)NC2=O)c1cc(F)cc(C(F)(F)F)c1 (single isomer, unassigned) [Compound I-1972] | 10 to 100
O=C1NC(c2cc(F)ccc2Cl)c2c(NC(=O)[C@@H]3CC[C@H](O)C3)cc(Br)cc21 (single isomer, unassigned) [Compound I-1975] | 10 to 100
O=C1NC(c2cc(F)ccc2Cl)c2c(NC(=O)[C@@H]3CC[C@@H](O)C3)cc(Br)cc21 (single isomer, unassigned) [Compound I-1976] | 10 to 100
O=C1NC(c2cc(F)ccc2Cl)c2c(NC(=O)N3C[C@@H](C(F)(F)F)[C@@H](O)C3)cc(-c3ccc4ncnn4c3)cc21 (single isomer, unassigned) [Compound I-1978] | 1 to 10
C[C@H](C#N)Oc1cc(NC(=O)c2cc(F)cc(C(F)(F)F)c2)c2c(c1)C(=O)N[C@@H]2c1cc(F)ccc1Cl (single isomer, unassigned) [Compound I-2005] | 1 to 10
C[C@H](C#N)Oc1cc(NC(=O)c2cc(F)cc(C(F)(F)F)c2)c2c(c1)C(=O)N[C@H]2c1cc(F)ccc1Cl (single isomer, unassigned) [Compound I-2006] | ≤ 0.1
C[C@@H](C#N)Oc1cc(NC(=O)c2cc(F)cc(C(F)(F)F)c2)c2c(c1)C(=O)N[C@@H]2c1cc(F)ccc1Cl (single isomer, unassigned) [Compound I-2007] | 1 to 10
C[C@@H](C#N)Oc1cc(NC(=O)c2cc(F)cc(C(F)(F)F)c2)c2c(c1)C(=O)N[C@H]2c1cc(F)ccc1Cl (single isomer, unassigned) [Compound I-2009] | ≤ 0.1
O=C1N[C@@H](c2cc(F)ccc2Cl)c2c(NC(=O)[C@H]3CC[C@@H](O)C3)cc(Br)cc21 (single isomer, unassigned) [Compound I-2102] | 10 to 100
O=C1N[C@H](c2cc(F)ccc2Cl)c2c(NC(=O)[C@H]3CC[C@@H](O)C3)cc(Br)cc21 (single isomer, unassigned) [Compound I-2103] | 10 to 100
O=C1N[C@@H](c2cc(F)ccc2Cl)c2c(NC(=O)[C@@H]3CC[C@H](O)C3)cc(Br)cc21 (single isomer, unassigned) [Compound I-2104] | 10 to 100
O=C1N[C@H](c2cc(F)ccc2Cl)c2c(NC(=O)[C@@H]3CC[C@H](O)C3)cc(Br)cc21 (single isomer, unassigned) [Compound I-2105] | 10 to 100
O=C(Nc1cccc2c1[C@H](C1CCCC[C@@H]1O)NC2=O)c1cc(F)cc(C(F)(F)F)c1 (single isomer, unassigned) [Compound I-2110] | 10 to 100
O=C1N[C@H](c2cc(F)ccc2Cl)c2c(NC(=O)N3CCC[C@@](O)(C(F)(F)F)C3)cccc21 (single isomer, unassigned) [Compound I-2113] | 10 to 100
O=C1N[C@H](c2cc(F)ccc2Cl)c2c(NC(=O)N3CCC[C@](O)(C(F)(F)F)C3)cccc21 (single isomer, unassigned) [Compound I-2114] | 10 to 100
O=C1N[C@@H](c2cc(F)ccc2Cl)c2c(NC(=O)N3CCC[C@](O)(C(F)(F)F)C3)cccc21 (single isomer, unassigned) [Compound I-2115] | 10 to 100
O=C1N[C@@H](c2cc(F)ccc2Cl)c2c(NC(=O)N3CCC[C@@](O)(C(F)(F)F)C3)cccc21 (single isomer, unassigned) [Compound I-2116] | 10 to 100
